The supplement of paper PMC10307832

Assays:
Experiment in all cases: relative viability (nuclei count vs DMSO), 5 days (fraction); higher = more cells survive
Carfilzomib + Pemetrexed = compound: CC(C)C[C@H](NC(=O)[C@H](CCc1ccccc1)NC(=O)CN1CCOCC1)C(=O)N[C@@H](Cc1ccccc1)C(=O)N[C@@H](CC(C)C)C(=O)[C@@]1(C)CO1 [Carfilzomib] + Nc1nc2[nH]cc(CCc3ccc(C(=O)N[C@@H](CCC(=O)O)C(=O)O)cc3)c2c(=O)[nH]1 [Pemetrexed] (partner 0.2 µM)
In short: (§1)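 Nuclei were stained with Hoechst during a one-step fixation (final 0.05% Triton X-100, 1% formaldehyde, 1 ug/ml Hoechst) carried out 5 days after dosing, then counted on 4× images. The cells, lung cancer lines in 1536-well plates, had been dosed by pin tool the day after seeding with one drug alone or a fixed anchor-drug dose plus five library-drug doses (not always all listed) in √10 steps. Relative viability is the nuclei count in treated wells divided by that in vehicle wells, and each value is the median of duplicate plates.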

Olaparib + Foretinib = compound: O=C(c1cc(Cc2n[nH]c(=O)c3ccccc23)ccc1F)N1CCN(C(=O)C2CC2)CC1 [Olaparib] + COc1cc2c(Oc3ccc(NC(=O)C4(C(=O)Nc5ccc(F)cc5)CC4)cc3F)ccnc2cc1OCCCN1CCOCC1 [Foretinib] (partner 0.25 µM)
In short: as §1

Crizotinib + Luminespib = compound: C[C@@H](Oc1cc(-c2cnn(C3CCNCC3)c2)cnc1N)c1c(Cl)ccc(F)c1Cl [Crizotinib] + CCNC(=O)c1noc(-c2cc(C(C)C)c(O)cc2O)c1-c1ccc(CN2CCOCC2)cc1 [Luminespib] (partner 0.01 µM)
In short: as §1

Carfilzomib + Pictilisib = compound: CC(C)C[C@H](NC(=O)[C@H](CCc1ccccc1)NC(=O)CN1CCOCC1)C(=O)N[C@@H](Cc1ccccc1)C(=O)N[C@@H](CC(C)C)C(=O)[C@@]1(C)CO1 [Carfilzomib] + CS(=O)(=O)N1CCN(Cc2cc3nc(-c4cccc5[nH]ncc45)nc(N4CCOCC4)c3s2)CC1 [Pictilisib] (partner 1 µM)
In short: as §1

Cell Line | relative viability (Carfilzomib + Pemetrexed; first compound 0.001 µM) | relative viability (Carfilzomib + Pemetrexed; first compound 0.003162 µM) | relative viability (Carfilzomib + Pemetrexed; first compound 0.01 µM) | relative viability (Carfilzomib + Pemetrexed; first compound 0.03162 µM) | relative viability (Carfilzomib + Pemetrexed; first compound 0.1 µM) | relative viability (Olaparib + Foretinib; first compound 0.08 µM) | relative viability (Olaparib + Foretinib; first compound 0.253 µM) | relative viability (Olaparib + Foretinib; first compound 2.53 µM) | relative viability (Olaparib + Foretinib; first compound 8 µM) | relative viability (Crizotinib + Luminespib; first compound 0.01 µM) | relative viability (Crizotinib + Luminespib; first compound 0.03162 µM) | relative viability (Crizotinib + Luminespib; first compound 0.1 µM) | relative viability (Crizotinib + Luminespib; first compound 0.3162 µM) | relative viability (Crizotinib + Luminespib; first compound 1 µM) | relative viability (Carfilzomib + Pictilisib; first compound 0.001 µM) | relative viability (Carfilzomib + Pictilisib; first compound 0.003162 µM) | relative viability (Carfilzomib + Pictilisib; first compound 0.01 µM) | relative viability (Carfilzomib + Pictilisib; first compound 0.03162 µM) | relative viability (Carfilzomib + Pictilisib; first compound 0.1 µM)
NCI-H596 | 0.486 | 0.519 | 0.421 | 0.329 | 0.244 | 0.927 | 0.82 | 0.828 | 0.534 | 0.86 | 1.18 | 0.942 | 1.18 | 1.01 | 0.365 | 0.425 | 0.398 | 0.259 | 0.18
NCI-H441 | 0.26 | 0.257 | 0.244 | 0.134 | 0.133 | 1.13 | 0.857 | 0.967 | 0.83 | 0.273 | 0.315 | 0.399 | – | 0.391 | 0.486 | 0.569 | 0.144 | 0.105 | 0.141
COR-L 105 | 1.24 | 1.09 | 1.19 | 0.469 | 0.317 | 1.37 | 0.988 | 0.807 | 0.835 | 0.686 | 0.859 | 0.712 | 0.804 | 0.769 | 0.414 | 0.437 | 0.346 | 0.289 | 0.23
NCI-H322M | 0.592 | 0.637 | 0.64 | 0.657 | 0.421 | 1.04 | 0.964 | 0.979 | 0.718 | 0.721 | 0.994 | 0.725 | 1 | 0.964 | 0.491 | 0.507 | 0.567 | 0.538 | 0.307
HCC-827 | 0.252 | 0.267 | 0.277 | 0.254 | 0.155 | 0.959 | 0.959 | 0.956 | 0.797 | 0.542 | 0.651 | 0.784 | 0.52 | 0.646 | 1.06 | 1.08 | 1.06 | 1.05 | 0.487
NCI-H1651 | 0.561 | 0.649 | 0.536 | 0.197 | 0.082 | 0.828 | 0.681 | 0.544 | 0.301 | 0.793 | 0.74 | 0.831 | 1.09 | 0.942 | 0.551 | 0.601 | 0.231 | 0.0999 | 0.0685
EKVX | 0.393 | 0.447 | 0.489 | – | 0.371 | 1.03 | 1 | 0.294 | 1.01 | 0.953 | – | 0.947 | 0.939 | 0.865 | 0.443 | 0.492 | 0.542 | 0.476 | 0.169
201T | 0.33 | 0.33 | 0.337 | 0.351 | 0.312 | 1.19 | 1.12 | 1.07 | 1.05 | 1.01 | 1.07 | – | 1.06 | – | 0.67 | 0.659 | 0.668 | 0.727 | 0.666
NCI-H2228 | 0.316 | 0.364 | 0.361 | 0.0862 | 0.143 | 0.884 | 0.767 | 0.805 | 0.765 | 0.119 | 0.16 | 0.132 | 0.122 | 0.119 | 0.465 | 0.468 | 0.206 | 0.102 | 0.115
NCI-H2009 | 1.06 | 1.05 | 1.04 | 0.868 | 0.124 | 1.35 | 1.16 | 1.17 | 1.06 | 0.994 | 1.02 | 0.988 | 1.01 | 1.08 | 0.859 | 1.07 | 0.753 | 0.126 | 0.0415
NCI-H1975 | 0.281 | 0.31 | 0.224 | 0.123 | 0.115 | 1.04 | 0.929 | 0.98 | 0.908 | 0.144 | 0.148 | 0.167 | 0.223 | 0.178 | 0.284 | 0.301 | 0.219 | 0.0929 | 0.101
NCI-H2347 | 0.456 | 0.44 | 0.423 | 0.403 | 0.272 | 0.902 | 0.945 | 0.786 | 0.977 | 0.212 | 0.458 | 0.482 | 0.681 | 0.404 | 0.662 | 0.623 | 0.67 | 0.549 | 0.318
PC-14 | 0.145 | 0.14 | 0.197 | 0.0596 | 0.0657 | 1.06 | 0.892 | 0.903 | 0.684 | 0.156 | 0.152 | 0.183 | 0.186 | 0.168 | 0.55 | 0.816 | 0.364 | 0.0334 | 0.0646
COR-L23 | 0.2 | 0.187 | 0.185 | 0.123 | 0.0834 | 1.08 | 0.842 | 0.797 | 0.567 | 0.655 | 0.665 | 0.656 | 0.775 | 0.687 | 0.756 | 0.806 | 0.678 | 0.0485 | 0.0565
LK-2 | 0.304 | 0.295 | 0.273 | 0.0987 | 0.0939 | 1.4 | 1.21 | 1.15 | 1.12 | 0.173 | 0.188 | 0.188 | – | 0.201 | – | 0.826 | 0.64 | 0.266 | 0.251
NCI-H358 | 0.169 | 0.164 | 0.173 | 0.136 | 0.102 | 0.962 | 0.66 | 0.675 | 0.64 | 0.464 | 0.431 | 0.488 | 0.416 | 0.334 | 0.424 | 0.453 | 0.305 | 0.147 | 0.135
